One assay concerns the target T1, CDK9/CycT1 (Homo sapiens, UniProt P50750).
T1 construct: Recombinant full-length His-tagged human CDK9 and CycT1; purchased Life Technologies PV4131; host or cells: insect cells
The experiment in a line: CDK9/CycT1 high ATP kinase assay (TR-FRET, 2 mM ATP). Type of assay: biochemical. As to conditions: 2 mM ATP (high ATP); median; read-out: CDK9/CyclinT1, 2 mM ATP (high ATP), IC50 (median). In outline:
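Full-length His-tagged human CDK9/CycT1 (insect cell, ~0.5 μg/mL) preincubated 15 min at 22 °C with compound in Tris pH 8.0, MgCl2, DTT buffer before reaction with biotinylated peptide substrate at high ATP (2 mM).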

Assay [1] addresses T2, CDK12 (nuclear staining in CAL-120 cells) (Homo sapiens, UniProt Q9NYV4).
T2 construct: endogenous in cells; host or cells: CAL-120 human breast cancer cells (DSMZ ACC 459)
The experiment in a line: CDK12 nuclear protein level: immunofluorescence/high content analysis (CAL-120). Type of assay: cell-based. As to conditions: for DC50: CAL-120 cells, 24 h, immunofluorescence, 50% reduction of nuclear CDK12 staining intensity, median, read-out: CDK12 degradation IF, DC50- [mol/l] (median); for (IC50 CDK12 high ATP) to (Degradation DC50 CDK12) ratio: ratio of IC50 CDK12 high ATP kinase assay to DC50 CDK12 degradation (IF, CAL-120). In a few lines:
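DC50 is the degrader concentration that halves nuclear CDK12 immunofluorescence relative to controls, measured by high-content imaging. CAL-120 cells were exposed to compound for 24 h at 37 °C before PFA fixation, and signal was normalized to DMSO and control wells.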

Structures are written as SMILES.

T2 sequence (Q9NYV4 whole entry): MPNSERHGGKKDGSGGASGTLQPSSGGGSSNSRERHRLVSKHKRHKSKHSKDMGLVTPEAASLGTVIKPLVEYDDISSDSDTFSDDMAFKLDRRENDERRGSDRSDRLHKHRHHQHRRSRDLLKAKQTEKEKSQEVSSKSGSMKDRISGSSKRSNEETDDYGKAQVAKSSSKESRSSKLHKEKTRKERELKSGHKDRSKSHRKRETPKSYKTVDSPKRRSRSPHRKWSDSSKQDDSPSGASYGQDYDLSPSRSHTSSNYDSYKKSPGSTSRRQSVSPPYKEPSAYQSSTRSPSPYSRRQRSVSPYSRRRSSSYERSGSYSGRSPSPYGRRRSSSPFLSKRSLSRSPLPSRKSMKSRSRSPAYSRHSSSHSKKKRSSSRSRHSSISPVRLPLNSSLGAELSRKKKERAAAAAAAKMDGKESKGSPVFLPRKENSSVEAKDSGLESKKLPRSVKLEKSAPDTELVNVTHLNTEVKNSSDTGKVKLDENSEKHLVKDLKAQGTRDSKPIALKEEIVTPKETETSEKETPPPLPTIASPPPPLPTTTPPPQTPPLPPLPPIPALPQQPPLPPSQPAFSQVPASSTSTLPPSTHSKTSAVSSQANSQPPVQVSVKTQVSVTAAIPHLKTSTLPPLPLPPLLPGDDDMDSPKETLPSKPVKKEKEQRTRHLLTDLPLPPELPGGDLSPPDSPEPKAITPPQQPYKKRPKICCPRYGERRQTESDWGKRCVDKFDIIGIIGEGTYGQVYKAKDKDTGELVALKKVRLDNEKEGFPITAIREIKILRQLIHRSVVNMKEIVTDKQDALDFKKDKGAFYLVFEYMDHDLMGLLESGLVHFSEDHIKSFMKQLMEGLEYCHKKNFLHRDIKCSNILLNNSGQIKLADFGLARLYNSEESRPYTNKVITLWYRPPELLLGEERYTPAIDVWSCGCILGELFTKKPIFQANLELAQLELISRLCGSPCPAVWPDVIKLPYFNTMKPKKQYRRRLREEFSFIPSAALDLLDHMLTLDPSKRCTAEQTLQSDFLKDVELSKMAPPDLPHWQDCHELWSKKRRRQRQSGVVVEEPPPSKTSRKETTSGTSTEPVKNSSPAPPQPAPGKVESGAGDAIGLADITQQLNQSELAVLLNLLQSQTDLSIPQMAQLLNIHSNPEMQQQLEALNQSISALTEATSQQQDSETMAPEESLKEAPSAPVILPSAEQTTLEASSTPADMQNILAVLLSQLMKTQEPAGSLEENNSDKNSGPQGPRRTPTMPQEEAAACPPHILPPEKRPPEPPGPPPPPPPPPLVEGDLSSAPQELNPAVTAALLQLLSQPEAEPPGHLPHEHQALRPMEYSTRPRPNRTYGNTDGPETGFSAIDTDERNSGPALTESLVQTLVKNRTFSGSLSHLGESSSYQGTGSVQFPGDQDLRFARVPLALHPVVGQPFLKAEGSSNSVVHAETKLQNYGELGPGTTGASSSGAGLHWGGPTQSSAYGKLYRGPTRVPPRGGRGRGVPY
T2 sequence (O75909 whole entry partner): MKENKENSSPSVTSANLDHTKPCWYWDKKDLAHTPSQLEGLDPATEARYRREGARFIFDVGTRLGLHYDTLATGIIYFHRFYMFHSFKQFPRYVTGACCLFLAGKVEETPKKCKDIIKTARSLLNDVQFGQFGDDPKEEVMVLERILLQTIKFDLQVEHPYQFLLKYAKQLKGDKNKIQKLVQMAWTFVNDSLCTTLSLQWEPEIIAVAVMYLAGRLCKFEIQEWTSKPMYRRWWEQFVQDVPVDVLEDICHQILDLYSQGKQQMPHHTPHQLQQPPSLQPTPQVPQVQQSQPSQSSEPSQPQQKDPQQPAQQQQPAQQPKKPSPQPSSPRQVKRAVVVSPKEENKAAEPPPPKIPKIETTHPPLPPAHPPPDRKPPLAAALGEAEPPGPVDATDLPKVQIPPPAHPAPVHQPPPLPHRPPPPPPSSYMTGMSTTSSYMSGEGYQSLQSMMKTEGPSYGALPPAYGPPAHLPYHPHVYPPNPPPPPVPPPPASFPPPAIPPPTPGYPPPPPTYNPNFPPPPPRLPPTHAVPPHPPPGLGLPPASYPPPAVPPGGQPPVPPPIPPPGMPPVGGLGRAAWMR
T1 sequence (P50750 whole entry): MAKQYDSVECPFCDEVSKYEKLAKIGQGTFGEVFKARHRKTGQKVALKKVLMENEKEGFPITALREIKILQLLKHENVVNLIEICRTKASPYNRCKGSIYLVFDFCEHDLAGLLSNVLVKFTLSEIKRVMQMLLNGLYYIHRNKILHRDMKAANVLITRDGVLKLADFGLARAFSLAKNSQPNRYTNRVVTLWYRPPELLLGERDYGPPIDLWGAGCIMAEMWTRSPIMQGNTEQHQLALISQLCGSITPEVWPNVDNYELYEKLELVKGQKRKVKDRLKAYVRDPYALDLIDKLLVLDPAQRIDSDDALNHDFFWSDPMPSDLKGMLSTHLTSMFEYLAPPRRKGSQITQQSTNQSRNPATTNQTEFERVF
T1 sequence (O60563 whole entry partner): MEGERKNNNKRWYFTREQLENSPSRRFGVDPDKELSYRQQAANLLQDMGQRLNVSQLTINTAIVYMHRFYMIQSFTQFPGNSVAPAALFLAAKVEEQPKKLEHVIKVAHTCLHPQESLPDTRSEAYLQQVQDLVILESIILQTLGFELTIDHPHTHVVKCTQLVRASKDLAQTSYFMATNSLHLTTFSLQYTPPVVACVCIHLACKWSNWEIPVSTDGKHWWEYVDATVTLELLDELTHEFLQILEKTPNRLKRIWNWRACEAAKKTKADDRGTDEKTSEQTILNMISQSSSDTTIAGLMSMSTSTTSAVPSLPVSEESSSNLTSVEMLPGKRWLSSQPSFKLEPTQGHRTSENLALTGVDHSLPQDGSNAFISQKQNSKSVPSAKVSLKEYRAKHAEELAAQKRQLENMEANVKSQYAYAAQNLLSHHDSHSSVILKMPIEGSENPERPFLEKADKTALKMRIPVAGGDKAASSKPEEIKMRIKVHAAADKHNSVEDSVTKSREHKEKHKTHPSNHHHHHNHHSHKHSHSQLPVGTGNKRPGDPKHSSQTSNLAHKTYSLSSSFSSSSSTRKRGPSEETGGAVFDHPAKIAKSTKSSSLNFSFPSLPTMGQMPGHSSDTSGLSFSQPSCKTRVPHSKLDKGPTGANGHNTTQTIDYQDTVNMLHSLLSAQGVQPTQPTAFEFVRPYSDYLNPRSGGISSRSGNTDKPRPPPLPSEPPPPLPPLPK

On to `COc1ccccc1-c1nnc(CNc2nc(N3CCN(C)CC3)nc3c(C4CC4(F)F)cnn23)[nH]1` (centres unmarked) [Example 430, 8-(2,2-difluorocyclopropyl)-N-{[5-(2-methoxyphenyl)-4H-1,2,4-triazol-3-yl]methyl}-2-(4-methylpiperazin-1-yl)pyrazolo[1,5-a][1,3,5]triazin-4-amine], for which the IC50 on CDK9/CycT1 was > 20000 nM. In addition, in assay [1], the DC50 came out at 25.3 nM and the “(IC50 CDK12 high ATP) to (Degradation DC50 CDK12) ratio” value is >789.
The corresponding values for `CC(C)COc1nc(NCc2nc3ccccc3[nH]2)n2ncc(Br)c2n1` [Example 409, N-[(1H-benzimidazol-2-yl)methyl]-8-bromo-2-(2-methylpropoxy)pyrazolo[1,5-a][1,3,5]triazin-4-amine] are > 20000 nM, 29.8 nM and >531.
Taken in the same sequence, the figures for `CC(C)c1cnn2c(NCc3ncc(-c4ccccc4)[nH]3)nc(N3CCCCC3)nc12` [Example 36, N-[(5-phenyl-1H-imidazol-2-yl)methyl]-2-(piperidin-1-yl)-8-(propan-2-yl)pyrazolo[1,5-a][1,3,5]triazin-4-amine] were > 20000 nM, 86.5 nM and >231.
The corresponding values for `Cc1cnn2c(NCc3nc4ccccc4[nH]3)nc(N3CCOCC3)nc12` [Example 393, N-[(1H-benzimidazol-2-yl)methyl]-8-methyl-2-(morpholin-4-yl)pyrazolo[1,5-a][1,3,5]triazin-4-amine] are > 20000 nM, 22.3 nM and >897.
`Brc1cnn2c(NCc3nc4ccccc4[nH]3)nc(OCCN3CCCC3)nc12` [Example 404, N-[(1H-benzimidazol-2-yl)methyl]-8-bromo-2-[2-(pyrrolidin-1-yl)ethoxy]pyrazolo[1,5-a][1,3,5]triazin-4-amine]: the IC50 on CDK9/CycT1 was > 20000 nM. In addition, in assay [1], the DC50 was found to be 114 nM and the “(IC50 CDK12 high ATP) to (Degradation DC50 CDK12) ratio” value is >175.
The corresponding values for `Cc1cnn2c(NCc3nc4c(F)c(F)ccc4[nH]3)nc(N3CCN(C)CC3)nc12` [Example 394, N-[(4,5-difluoro-1H-benzimidazol-2-yl)methyl]-8-methyl-2-(4-methylpiperazin-1-yl)pyrazolo[1,5-a][1,3,5]triazin-4-amine] are > 20000 nM, 5.65 nM and >3303.
Taken in the same sequence, the figures for `Clc1cc2nc(CNc3nc(N4CCOCC4)nc4c(-c5ccnnc5)cnn34)[nH]c2cc1Cl.O=C(O)C(F)(F)F` [Example 440, trifluoroacetic acid N-[(5,6-dichloro-1H-benzimidazol-2-yl)methyl]-2-(morpholin-4-yl)-8-(pyridazin-4-yl)pyrazolo[1,5-a][1,3,5]triazin-4-amine] were > 20000 nM, 6.67 nM and >2996.
Taken in the same sequence, the figures for `Cc1cnn2c(NCc3nc4ccccc4[nH]3)nc(N3CCN(C)CC3)nc12` [Example 396, N-[(1H-benzimidazol-2-yl)methyl]-8-methyl-2-(4-methylpiperazin-1-yl)pyrazolo[1,5-a][1,3,5]triazin-4-amine] were > 20000 nM, 19.4 nM and >1031.
Take `CN1CCN(c2nc(NCc3nc4cc(Cl)c(Cl)cc4[nH]3)n3ncc(-c4cnn(C)c4)c3n2)CC1` [Example 420, N-[(5,6-dichloro-1H-benzimidazol-2-yl)methyl]-2-(4-methylpiperazin-1-yl)-8-(1-methyl-1H-pyrazol-4-yl)pyrazolo[1,5-a][1,3,5]triazin-4-amine]: the IC50 on CDK9/CycT1 was > 20000 nM. Further, in assay [1], the DC50 was found to be 80.6 nM and the “(IC50 CDK12 high ATP) to (Degradation DC50 CDK12) ratio” value was >248.
The corresponding values for `CN(C)CCOc1nc(NCc2nc3ccccc3[nH]2)n2ncc(Br)c2n1` [Example 399, N-[(1H-benzimidazol-2-yl)methyl]-8-bromo-2-[2-(dimethylamino)ethoxy]pyrazolo[1,5-a][1,3,5]triazin-4-amine] are > 20000 nM, 66 nM and >303.
The corresponding values for `CCNc1nc(NCc2nnc(-c3ccccc3)[nH]2)n2ncc(C(C)C)c2n1` [Example 38, N^2-ethyl-N^4-[(5-phenyl-4H-1,2,4-triazol-3-yl)methyl]-8-(propan-2-yl)pyrazolo[1,5-a][1,3,5]triazine-2,4-diamine] are > 20000 nM, 37.2 nM and >153.
In the case of `Cc1cnn2c(NCc3nc4ccccc4[nH]3)nc(N3CC4CCC(C3)N4)nc12` [Example 401, N-[(1H-benzimidazol-2-yl)methyl]-2-(3,8-diazabicyclo[3.2.1]octan-3-yl)-8-methylpyrazolo[1,5-a][1,3,5]triazin-4-amine], the IC50 at CDK9/CycT1 was > 20000 nM. Moreover, in assay [1], the DC50 was 30.8 nM and the “(IC50 CDK12 high ATP) to (Degradation DC50 CDK12) ratio” value is on record as >649.
Taken in the same sequence, the figures for `COc1cccc2nc(CNc3nc(N4CCOCC4)nc4c(-c5ccnnc5)cnn34)[nH]c12.O=C(O)C(F)(F)F` [Example 439, trifluoroacetic acid N-[(7-methoxy-1H-benzimidazol-2-yl)methyl]-2-(morpholin-4-yl)-8-(pyridazin-4-yl)pyrazolo[1,5-a][1,3,5]triazin-4-amine] were > 20000 nM, 4.65 nM and 850.
Taken in the same sequence, the figures for `COc1cccc2nc(CNc3nc(N4CCN(C)CC4)nc4c(-c5nccs5)cnn34)[nH]c12` [Example 416, N-[(7-methoxy-1H-benzimidazol-2-yl)methyl]-2-(4-methylpiperazin-1-yl)-8-(1,3-thiazol-2-yl)pyrazolo[1,5-a][1,3,5]triazin-4-amine] were > 20000 nM, 26.1 nM and >765.
For the compound `NCCOCCOCCNc1nc(NCc2nc3ccccc3[nH]2)n2ncc(Br)c2n1` [Example 412, N2-{2-[2-(2-aminoethoxy)ethoxy]ethyl}-N4-[(1H-benzimidazol-2-yl)methyl]-8-bromopyrazolo[1,5-a][1,3,5]triazine-2,4-diamine], on CDK9/CycT1, the IC50 is > 20000 nM. Further, in assay [1], the DC50 is 77.4 nM and the “(IC50 CDK12 high ATP) to (Degradation DC50 CDK12) ratio” value is reported as >74.
Regarding `Fc1ccc(-c2nnc(CNc3nc(N4CCOCC4)nc4c(Br)cnn34)[nH]2)c(F)c1` [Example 41, 8-bromo-N-{[5-(2,4-difluorophenyl)-4H-1,2,4-triazol-3-yl]methyl}-2-(morpholin-4-yl)pyrazolo[1,5-a][1,3,5]triazin-4-amine], the IC50 on CDK9/CycT1 was > 20000 nM. Moreover, in assay [1], the DC50 was determined as 4.06 nM.
On to `COc1cccc2[nH]c(CNc3nc(N4CCOCC4)nc4c(-c5nccs5)cnn34)nc12` [Example 414, N-[(4-methoxy-1H-benzimidazol-2-yl)methyl]-2-(morpholin-4-yl)-8-(1,3-thiazol-2-yl)pyrazolo [1,5-a][1,3,5]triazin-4-amine], for which the IC50 at CDK9/CycT1 is > 20000 nM. Further, in assay [1], the DC50 came out at 32.5 nM and the “(IC50 CDK12 high ATP) to (Degradation DC50 CDK12) ratio” value is recorded as >176.
With `O=C(O)C(F)(F)F.c1ccc2[nH]c(CNc3nc(N4CCOCC4)nc4c(-c5ccnnc5)cnn34)nc2c1` [Example 438, trifluoroacetic acid N-[(1H-benzimidazol-2-yl)methyl]-2-(morpholin-4-yl)-8-(pyridazin-4-yl)pyrazolo[1,5-a][1,3,5]triazin-4-amine], at CDK9/CycT1, the IC50 is > 20000 nM. Moreover, in assay [1], the DC50 stood at 138 nM and the “(IC50 CDK12 high ATP) to (Degradation DC50 CDK12) ratio” value is given as >57.
The corresponding values for `FC(F)n1cc(-c2cnn3c(NCc4nc5cc(Cl)c(Cl)cc5[nH]4)nc(N4CCOCC4)nc23)cn1` [Example 423, N-[(5,6-dichloro-1H-benzimidazol-2-yl)methyl]-8-[1-(difluoromethyl)-1H-pyrazol-4-yl]-2-(morpholin-4-yl)pyrazolo[1,5-a][1,3,5]triazin-4-amine] are > 20000 nM, 17.8 nM and >720.
For the compound `COC(C)(C)COc1nc(NCc2nc3ccccc3[nH]2)n2ncc(Br)c2n1` [Example 403, N-[(1H-benzimidazol-2-yl)methyl]-8-bromo-2-(2-methoxy-2-methylpropoxy)pyrazolo[1,5-a][1,3,5]triazin-4-amine], the IC50 on CDK9/CycT1 is > 20000 nM. In assay [1], the DC50 amounted to 43.1 nM and the “(IC50 CDK12 high ATP) to (Degradation DC50 CDK12) ratio” value is on record as >464.
The corresponding values for `CCNc1nc(NCc2ncc(-c3ccccc3)[nH]2)n2ncc(C(C)C)c2n1` [Example 34, N^2-ethyl-N^4-[(5-phenyl-1H-imidazol-2-yl)methyl]-8-(propan-2-yl)pyrazolo[1,5-a][1,3,5]triazine-2,4-diamine] are > 20000 nM, 12.7 nM and >449.
The corresponding values for `Brc1cnn2c(NCc3nc4ccccc4[nH]3)nc(OC3CCOCC3)nc12` [Example 405, N-[(1H-benzimidazol-2-yl)methyl]-8-bromo-2-[(oxan-4-yl)oxy]pyrazolo[1,5-a][1,3,5]triazin-4-amine] are > 20000 nM, 113 nM and >176.

The values above are taken from patent publication US20230117034A1, “PYRAZOLOTRIAZINES” (Bayer Aktiengesellschaft, priority 2019, published 2023).
